Patent US20240116985A1, “STAPLED PEPTIDES AND METHODS THEREOF” (priority 2020, published 2024)

Biological target: T1, full-length beta-Catenin (Uniprot ID P35222) (Homo sapiens, UniProt P35222)
T1 construct: 10 nM full-length beta-Catenin (Uniprot ID P35222)
T1 sequence (P35222 1-781): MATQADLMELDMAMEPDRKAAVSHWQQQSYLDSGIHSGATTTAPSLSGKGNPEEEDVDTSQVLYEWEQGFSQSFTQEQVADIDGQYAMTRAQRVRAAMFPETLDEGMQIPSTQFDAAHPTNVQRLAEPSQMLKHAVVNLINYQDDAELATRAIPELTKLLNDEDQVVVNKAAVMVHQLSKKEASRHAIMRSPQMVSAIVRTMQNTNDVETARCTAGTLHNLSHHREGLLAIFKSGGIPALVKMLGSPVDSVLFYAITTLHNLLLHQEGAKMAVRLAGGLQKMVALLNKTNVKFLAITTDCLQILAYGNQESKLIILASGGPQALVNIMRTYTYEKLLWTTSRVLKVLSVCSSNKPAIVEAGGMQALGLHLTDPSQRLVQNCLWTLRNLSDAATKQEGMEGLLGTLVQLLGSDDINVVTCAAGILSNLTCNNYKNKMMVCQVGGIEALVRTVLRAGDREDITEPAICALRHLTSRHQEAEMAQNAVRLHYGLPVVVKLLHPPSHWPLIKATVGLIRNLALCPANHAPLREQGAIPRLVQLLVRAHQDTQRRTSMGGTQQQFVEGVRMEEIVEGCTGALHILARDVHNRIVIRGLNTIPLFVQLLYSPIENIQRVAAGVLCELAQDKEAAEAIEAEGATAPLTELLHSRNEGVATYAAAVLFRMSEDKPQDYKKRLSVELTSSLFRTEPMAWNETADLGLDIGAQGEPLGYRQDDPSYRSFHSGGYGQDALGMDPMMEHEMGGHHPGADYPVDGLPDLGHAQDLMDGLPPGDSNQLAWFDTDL
Test: Fluorescence polarization IC50 (beta-catenin / 5FAM-TCF4 10-53 competition)
Assay type: binding
Details: fluorescence polarization; read-out: beta-Catenin FP IC50

SMILES	IC50
CC(=O)N1CCC[C@]12CC=CCCCC1(CCCC=CCCCOC(=O)N3CC[C@@](C(=O)N[C@@H](Cc4ccccc4)C(=O)N[C@@H](Cc4csc5ccccc45)C(=O)N[C@@H](CCC(N)=O)C(N)=O)(C3)NC(=O)[C@H](CC(C)C)NC(=O)[C@H](Cc3ccccc3)NC(=O)[C@H](C)NC(=O)[C@H](CCCCNC(C)C)NC(=O)[C@H](Cc3c[nH]cn3)NC(=O)[C@H](CC(=O)O)NC1=O)NC(=O)[C@H](CC1CCCCC1)NC(=O)[C@H](CC(N)=O)NC2=O (stereo partly drawn) [I-2348, Ac-PL3-Asn-Cha-B5-Asp-His-iPrLys-Ala-Phe-Leu-PyrS2-Phe-BztA-Gln-NH2]	179 nM
CC(=O)N1CCC[C@]12CC=CCCCC1(CCCC=CCCCOC(=O)N3CC[C@@](C(=O)N[C@@H](Cc4ccccc4)C(=O)N[C@@H](Cc4csc5ccccc45)C(=O)N[C@@H](Cc4c[nH]cn4)C(N)=O)(C3)NC(=O)[C@H](CC(C)C)NC(=O)[C@H](Cc3ccccc3)NC(=O)[C@H](C)NC(=O)[C@H](CCCCNC(C)C)NC(=O)[C@H](CCC(N)=O)NC(=O)[C@H](CC(=O)O)NC1=O)NC(=O)[C@H](CC1CCCCC1)NC(=O)[C@H](CC(N)=O)NC2=O (stereo partly drawn) [I-2351, Ac-PL3-Asn-Cha-B5-Asp-Gln-iPrLys-Ala-Phe-Leu-PyrS2-Phe-BztA-His-NH2]	187 nM
CC(=O)N1CCC[C@]12CC=CCCCC1(CCCC=CCCCOC(=O)N3CC[C@@](C(=O)N[C@@H](Cc4ccccc4)C(=O)N[C@@H](Cc4csc5ccccc45)C(=O)N[C@@H](C)C(N)=O)(C3)NC(=O)[C@H](CC(C)C)NC(=O)[C@H](Cc3ccccc3)NC(=O)[C@H](C)NC(=O)[C@H](CCCCNC(C)C)NC(=O)[C@H](CCC(N)=O)NC(=O)[C@H](CC(=O)O)NC1=O)NC(=O)[C@H](CC1CCCCC1)NC(=O)[C@H](CC(N)=O)NC2=O (stereo partly drawn) [I-2352, Ac-PL3-Asn-Cha-B5-Asp-Gln-iPrLys-Ala-Phe-Leu-PyrS2-Phe-BztA-Ala-NH2]	211 nM
CC(=O)N1CCC[C@]12CC=CCCCC1(CCCC=CCCCOC(=O)N3CC[C@@](C(=O)N[C@@H](Cc4ccccc4)C(=O)N[C@@H](Cc4csc5ccccc45)C(=O)N[C@@H](CCC(N)=O)C(N)=O)(C3)NC(=O)[C@H](CC(C)C)NC(=O)[C@H](Cc3ccccc3)NC(=O)[C@H](C)NC(=O)[C@H](CCCCNC(C)C)NC(=O)[C@H](CCC(N)=O)NC(=O)[C@H](CC(=O)O)NC1=O)NC(=O)[C@H](CC1CCCCC1)NC(=O)[C@H](CCO)NC2=O (stereo partly drawn) [I-2353, Ac-PL3-Hse-Cha-B5-Asp-Gln-iPrLys-Ala-Phe-Leu-PyrS2-Phe-BztA-Gln-NH2]	2760 nM
CCOC(=O)C[C@@H]1NC(=O)[C@H](CC(=O)O)NC(=O)C2(CCCC=CCCCOC(=O)N3CC[C@@](C(=O)N[C@@H](Cc4ccsc4)C(=O)N[C@@H](Cc4csc5ccccc45)C(=O)N[C@@H](CCC(N)=O)C(N)=O)(C3)NC(=O)[C@H](CC(C)C)NC(=O)[C@H](Cc3ccccc3)NC(=O)[C@H](C)NC(=O)[C@H](C)NC1=O)CCCC=CC[C@]1(CCCN1C(C)=O)C(=O)N[C@@H](CC(=O)O)C(=O)N[C@@H](CC(C)(C)C)C(=O)N2 (stereo partly drawn) [I-2358, Ac-PL3-Asp-Npg-B5-Asp-[Et]AspE-Ala-Ala-Phe-Leu-PyrS2-3Thi-BztA-Gln-NH2]	463 nM
CC(C)COC(=O)N1CCC[C@]12CC=CCCCC1(CCCC=CCCCOC(=O)N3CC[C@@](C(=O)N[C@@H](Cc4ccsc4)C(=O)N[C@@H](Cc4csc5ccccc45)C(=O)N[C@@H](Cc4c[nH]cn4)C(N)=O)(C3)NC(=O)[C@H](CCC(N)=O)NC(=O)[C@H](Cc3ccccc3)NC(=O)[C@H](C)NC(=O)[C@H](C)NC(=O)[C@H](CC(=O)O)NC(=O)[C@H](CC(=O)O)NC1=O)NC(=O)[C@H](CC(C)(C)C)NC(=O)[C@H](CC(=O)O)NC2=O (stereo partly drawn) [I-2364, CO2iBu-PL3-Asp-Npg-B5-Asp-Asp-Ala-Ala-Phe-Gln-PyrS2-3Thi-BztA-His-NH2]	116 nM
CCOC(=O)CC[C@@H]1NC(=O)[C@H](CC(=O)O)NC(=O)C2(CCCC=CCCCOC(=O)N3CC[C@@](C(=O)N[C@@H](Cc4ccsc4)C(=O)N[C@@H](Cc4csc5ccccc45)C(=O)N[C@@H](CCC(N)=O)C(N)=O)(C3)NC(=O)[C@H](CC(C)C)NC(=O)[C@H](Cc3ccccc3)NC(=O)[C@H](C)NC(=O)[C@H](C)NC1=O)CCCC=CC[C@]1(CCCN1C(C)=O)C(=O)N[C@@H](CC(=O)O)C(=O)N[C@@H](CC(C)(C)C)C(=O)N2 (stereo partly drawn) [I-2365, Ac-PL3-Asp-Npg-B5-Asp-[Et]GluE-Ala-Ala-Phe-Leu-PyrS2-3Thi-BztA-Gln-NH2]	3440 nM
COC(=O)CC[C@@H]1NC(=O)[C@H](CC(=O)O)NC(=O)C2(CCCC=CCCCOC(=O)N3CC[C@@](C(=O)N[C@@H](Cc4ccsc4)C(=O)N[C@@H](Cc4csc5ccccc45)C(=O)N[C@@H](CCC(N)=O)C(N)=O)(C3)NC(=O)[C@H](CC(C)C)NC(=O)[C@H](Cc3ccccc3)NC(=O)[C@H](C)NC(=O)[C@H](C)NC1=O)CCCC=CC[C@]1(CCCN1C(C)=O)C(=O)N[C@@H](CC(=O)O)C(=O)N[C@@H](CC(C)(C)C)C(=O)N2 (stereo partly drawn) [I-2366, Ac-PL3-Asp-Npg-B5-Asp-[Me]GluE-Ala-Ala-Phe-Leu-PyrS2-3Thi-BztA-Gln-NH2]	1740 nM
CC(=O)N1CCC[C@]12CC=CCCCC1(CCCC=CCCCOC(=O)N3CC[C@@](C(=O)N[C@@H](Cc4ccccc4C(F)(F)F)C(=O)N[C@@H](Cc4csc5ccccc45)C(=O)N[C@@H](CO)C(N)=O)(C3)NC(=O)[C@H](CC(C)C)NC(=O)[C@H](Cc3ccccc3)NC(=O)[C@H](C)NC(=O)[C@H](C)NC(=O)[C@H](Cn3cc(CCC(=O)O)nn3)NC(=O)[C@H](CC(=O)O)NC1=O)NC(=O)[C@H](CC(C)(C)C)NC(=O)[C@H](CC(=O)O)NC2=O (stereo partly drawn) [I-2370, Ac-PL3-Asp-Npg-B5-Asp-[CH2CH2CO2H]TriAzDap-Ala-Ala-Phe-Leu-PyrS2-2F3MeF-BztA-Ser-NH2]	12 nM

Continued, values first:

IC50	SMILES
1160 nM	CC(=O)N1CCC[C@]12CC=CCCCC1(CCCC=CCCCOC(=O)N3CC[C@@](C(=O)N[C@@H](Cc4ccccc4)C(=O)N[C@@H](Cc4csc5ccccc45)C(=O)N[C@@H](CCC(N)=O)C(N)=O)(C3)NC(=O)[C@H](CC(C)C)NC(=O)[C@H](Cc3ccccc3)NC(=O)[C@H](C)NC(=O)[C@H](CCCCNC(C)C)NC(=O)[C@H](Cc3c[nH]cn3)NC(=O)[C@H](CC(=O)O)NC1=O)NC(=O)[C@H](CC1CCCCC1)NC(=O)[C@H](CC(N)=O)NC2=O (stereo partly drawn) [I-2349, Ac-PL3-Asn-Cha-B5-Asp-His-iPrLys-Ala-Phe-Leu-PyrS2-Phe-BztA-Gln-NH2]
417 nM	CC(=O)N1CCC[C@]12CC=CCCCC1(CCCC=CCCCOC(=O)N3CC[C@@](C(=O)N[C@@H](Cc4ccccc4)C(=O)N[C@@H](Cc4csc5ccccc45)C(=O)N[C@@H](CCC(N)=O)C(N)=O)(C3)NC(=O)[C@H](CC(C)C)NC(=O)[C@H](Cc3ccccc3)NC(=O)[C@H](C)NC(=O)[C@H](CCO)NC(=O)[C@H](CCC(N)=O)NC(=O)[C@H](CC(=O)O)NC1=O)NC(=O)[C@H](CC1CCCCC1)NC(=O)[C@H](CC(N)=O)NC2=O (stereo partly drawn) [I-2355, Ac-PL3-Asn-Cha-B5-Asp-Gln-Hse-Ala-Phe-Leu-PyrS2-Phe-BztA-Gln-NH2]
5270 nM	CCOC(=O)C[C@@H]1NC(=O)[C@]2(CC=CCCCC3(CCCC=CCCCOC(=O)N4CC[C@@](C(=O)N[C@@H](Cc5ccsc5)C(=O)N[C@@H](Cc5csc6ccccc56)C(=O)N[C@@H](CCC(N)=O)C(N)=O)(C4)NC(=O)[C@H](CC(C)C)NC(=O)[C@H](Cc4ccccc4)NC(=O)[C@H](C)NC(=O)[C@H](C)NC(=O)[C@H](CC(=O)O)NC(=O)[C@H](CC(=O)O)NC3=O)NC(=O)[C@H](CC(C)(C)C)NC1=O)CCCN2C(C)=O (stereo partly drawn) [I-2356, Ac-PL3-[Et]AspE-Npg-B5-Asp-Asp-Ala-Ala-Phe-Leu-PyrS2-3Thi-BztA-Gln-NH2]
66 nM	COC(=O)N1CCC[C@]12CC=CCCCC1(CCCC=CCCCOC(=O)N3CC[C@@](C(=O)N[C@@H](Cc4ccsc4)C(=O)N[C@@H](Cc4csc5ccccc45)C(=O)N[C@@H](Cc4c[nH]cn4)C(N)=O)(C3)NC(=O)[C@H](CCC(N)=O)NC(=O)[C@H](Cc3ccccc3)NC(=O)[C@H](C)NC(=O)[C@H](C)NC(=O)[C@H](CC(=O)O)NC(=O)[C@H](CC(=O)O)NC1=O)NC(=O)[C@H](CC(C)(C)C)NC(=O)[C@H](CC(=O)O)NC2=O (stereo partly drawn) [I-2362, CO2Me-PL3-Asp-Npg-B5-Asp-Asp-Ala-Ala-Phe-Gln-PyrS2-3Thi-BztA-His-NH2]
44 nM	CCCCOC(=O)N1CCC[C@]12CC=CCCCC1(CCCC=CCCCOC(=O)N3CC[C@@](C(=O)N[C@@H](Cc4ccsc4)C(=O)N[C@@H](Cc4csc5ccccc45)C(=O)N[C@@H](Cc4c[nH]cn4)C(N)=O)(C3)NC(=O)[C@H](CCC(N)=O)NC(=O)[C@H](Cc3ccccc3)NC(=O)[C@H](C)NC(=O)[C@H](C)NC(=O)[C@H](CC(=O)O)NC(=O)[C@H](CC(=O)O)NC1=O)NC(=O)[C@H](CC(C)(C)C)NC(=O)[C@H](CC(=O)O)NC2=O (stereo partly drawn) [I-2363, CO2Bu-PL3-Asp-Npg-B5-Asp-Asp-Ala-Ala-Phe-Gln-PyrS2-3Thi-BztA-His-NH2]
